We go through one compound from article PMC12394179, “Re‐engineering a transferase scaffold for indole C3 methylation in diketopiperazines” (Protein Science : A Publication of the Protein Society, 2025).

The structures appear in SMILES notation.

This assay concerns the target T1, SeMT (Saccharopolyspora erythraea, UniProt A4FFC0).
T1 construct: gene SACE_3471; codon-harmonized synthetic gene in pET28a(+), E. coli BL21(DE3), Ni-NTA purified; dimer
T1 sequence (A4FFC0 1-266): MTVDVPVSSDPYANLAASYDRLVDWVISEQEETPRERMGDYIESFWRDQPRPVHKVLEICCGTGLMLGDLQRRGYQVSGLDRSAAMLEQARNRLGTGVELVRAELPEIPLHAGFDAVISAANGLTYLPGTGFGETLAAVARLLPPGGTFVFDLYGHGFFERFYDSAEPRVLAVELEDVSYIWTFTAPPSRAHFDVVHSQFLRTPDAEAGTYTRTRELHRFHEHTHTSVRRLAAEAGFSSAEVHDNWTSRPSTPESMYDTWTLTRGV
The assay is described as follows: X-ray crystallography. In kind it is binding. The note with it: co-crystal with 2 mM SAH, pH 5.6 reservoir; cofactor site (product of methyl transfer).

With `Nc1ncnc2c1ncn2[C@@H]1O[C@H](CSCC[C@H](N)C(=O)O)[C@@H](O)[C@H]1O` [SAH], the X-ray crystallography result is on record as “the demethylated cofactor SAH (included in the sample for crystallization) is found embraced”.
